The nature of data set [1]: in vivo. Type of data set: in vivo, rat. The conditions noted are these: rat, in vivo, ip. The source says:
(§1) There is evidence that antipsychotic drugs cause EPS by interfering with neurotransmission in a nigrostriatal dopaminergic pathway. It is thought that they block dopamine receptors in the neostriatum. Therefore, the ability of a drug to block striatal dopamine receptors is a measure of its EPS liability.
(§2) This treatment causes degeneration of the nigrostriatal dopaminergic pathway accompanied by a marked decrease in the dopamine content of the neostriatum on the side of the lesion. Animals with this lesion develop postural and motor asymmetries which are altered by drugs which affect dopaminergic activity. Amphetamine, which releases dopamine and norepinephrine from catecholaminergic neurons, causes these rats to rotate unidirectionally toward the side of the lesion; i.e., ipsilaterally. Since there is a much larger amount of dopamine to be released by amphetamine from the intact nigrostriatal neurons on the non-lesioned side than from those remaining on the lesioned side, the rotational behavior is apparently due to a preponderance of activation of striatal dopamine receptors on the intact side. The ability of a drug to antagonize the rotational behavior is therefore a measure of its ability to block striatal dopamine receptors and is indicative of its potential to produce EPS.
(§3) To predict the potential ability of a drug to cause EPS, the ratio of its ED50 (i.p.) for antagonism of amphetamine-induced rotation to its ED50 (i.p.) for blockade of shock avoidance acquisition in the rat, a procedure for assessing antipsychotic activity, (R/A ratio) is calculated. The ED50 values of some clinically established antipsychotics in the avoidance and rotational tests and the R/A ratios are presented in Table I.

The subject of data set [2] is striatal dopamine receptors. Put plainly: in vivo. Conditions: for R/A ratio: rat; for ED50 for antagonism of amphetamine-induced rotation (R): rats with unilateral 6-hydroxydopamine lesion, i.p. In kind it is in vivo, rat.
Source text: as §1, §2, §3

For data set [3], the system named is shock avoidance acquisition. Nature of the data set: Blockade (antagonism) of shock avoidance acquisition in rats. Conditions: Rattus norvegicus, ip, read-out: ED50 for antagonism (blockade) of avoidance acquisition (A). In kind it is in vivo. The protocol:
as §3

For data set [4] the following is noted: compared with chlorpromazine; cited from earlier work.
[5] abbreviates: ED50 (i.p.) rotation / ED50 (i.p.) avoidance, high ratio predicts low potential to produce EPS, read-out: R/A ratio.

These results are taken from patent US4073912A, “Piperidylidene derivatives of benzo-fused xanthenes, thioxanthenes and dibenzoxepins and antipsychotic use thereof” (priority 1976, dated 1978).

The structures appear in SMILES notation. Where a name gives a salt, the structure may show the parent alone. Read-outs that look alike come from different tables or passages of the source.

Turning to `O=C(CCCN1CCC(O)(c2ccc(Cl)cc2)CC1)c1ccc(F)cc1` [Haloperidol], in data set [1] (R/A ratio), the selectivity ratio turned out to be 0.31. Also, the R/A ratio in data set [2] (in vivo, ip) was in the range of 0.3 to 0.5. Further, the “ED50 for antagonism of amphetamine-induced rotation (R)” value (“ED50 for antagonism” for short) in data set [2] turned out to be 0.05 mg/kg. In data set [3], the ED50 was 0.16 mg/kg. For the same molecule, in data set [4], the “propensity to cause EPS” value is given as “considerably greater propensity to cause EPS than chlorpromazine”.

For the molecule `CN(C)CCCN1c2ccccc2Sc2ccc(Cl)cc21` [Chlorpromazine], the selectivity ratio in data set [1] (setting [5]) was 1.3. Also, the “ED50 for antagonism” value in data set [2] turned out to be 2.0 mg/kg. Also, in data set [3], the ED50 was 1.5 mg/kg.

For `CN1CCN(C2=Nc3cc(Cl)ccc3Nc3ccccc32)CC1` [Clozapine], in data set [1] (read-out: R/A ratio), the selectivity ratio turned out to be 3.8. In data set [3] (rats, i.p.), the ED50 stood at 6.6 mg/kg. The “propensity to cause EPS” value in data set [4] was “produce EPS to a lesser extent than chlorpromazine”.

As for `O=c1[nH]c2ccccc2n1C1CCN(CCCC(c2ccc(F)cc2)c2ccc(F)cc2)CC1` [Pimozide], in data set [1] (setting [5]), the selectivity ratio was 0.3. The R/A ratio in data set [2] (ED50 (i.p.) rotation / ED50 (i.p.) avoidance, high ratio predicts low potential to produce EPS) is recorded as 0.3 to 0.5. Further, the “ED50 for antagonism” value in data set [2] worked out at 0.08 mg/kg. Further, the ED50 in data set [3] was found to be 0.24 mg/kg. In addition, in data set [4], the “propensity to cause EPS” value was “considerably greater propensity to cause EPS than chlorpromazine”.

For `CN1CCC(=C2c3ccccc3Oc3ccc4ccccc4c32)CC1` [12-(1-methyl-4-piperidylidene)-12H-benzo a!xanthene hydrochloride], in data set [1] (setting [5]), the selectivity ratio was 10. In data set [2] (indicated by R/A ratio of 10), the EPS liability entry is “essentially free of EPS liability”. Moreover, the “ED50 for antagonism” value in data set [2] is on record as 6.4 mg/kg. For the same molecule, the ED50 in data set [3] (rats, i.p.) was found to be 0.64 mg/kg.

On to `CN1CCN(CCCN2c3ccccc3Sc3ccc(C(F)(F)F)cc32)CC1` [Trifluoperazine], for which the selectivity ratio in data set [1] (R/A ratio) amounted to 0.46. In addition, the R/A ratio in data set [2] (in vivo, ip) lay within 0.3 to 0.5. The “ED50 for antagonism” value in data set [2] is 0.12 mg/kg. In addition, the ED50 in data set [3] (rats, i.p.) turned out to be 0.26 mg/kg. The “propensity to cause EPS” value in data set [4] is “considerably greater propensity to cause EPS than chlorpromazine”.

Turning to `CSc1ccc2c(c1)N(CCC1CCCCN1C)c1ccccc1S2` (centres unmarked) [Thioridazine], in data set [3] (rats, i.p.), the ED50 worked out at 5.1 mg/kg.

A word on the ED50: it is the dose that gives a 50% effect, or the effect in half of the subjects.
